# How the values were obtained:
# FGR = FGR (Homo sapiens, UniProt P09769); experiment: Kinase profiling; assay type: binding; settings: read-out: % Ctrl @ 1000 nM
# PRKR = PRKR (Homo sapiens, UniProt P19525); experiment: Kinase profiling; assay type: binding; settings: read-out: % Ctrl @ 1000 nM
# PIP5K2B = PIP5K2B (Homo sapiens, UniProt P78356); experiment: Kinase profiling; assay type: binding; settings: read-out: % Ctrl @ 1000 nM
# NIK = target: T1, NIK (Homo sapiens, UniProt Q99558); experiment: Kinase profiling; assay type: binding; settings: read-out: % Ctrl @ 1000 nM
# T1 construct: T7 phage fusion (said for most assays); made in house
# MARK1 = MARK1 (Homo sapiens, UniProt Q9P0L2); experiment: Kinase profiling; assay type: binding; settings: read-out: % Ctrl @ 1000 nM
# KIT (V559D, V654A) = KIT (V559D, V654A) (Homo sapiens, UniProt P10721, V559D/V654A); experiment: Kinase profiling; assay type: binding; settings: read-out: % Ctrl @ 1000 nM
# Chain of KIT (V559D, V654A) (P10721 26-976 V559D/V654A): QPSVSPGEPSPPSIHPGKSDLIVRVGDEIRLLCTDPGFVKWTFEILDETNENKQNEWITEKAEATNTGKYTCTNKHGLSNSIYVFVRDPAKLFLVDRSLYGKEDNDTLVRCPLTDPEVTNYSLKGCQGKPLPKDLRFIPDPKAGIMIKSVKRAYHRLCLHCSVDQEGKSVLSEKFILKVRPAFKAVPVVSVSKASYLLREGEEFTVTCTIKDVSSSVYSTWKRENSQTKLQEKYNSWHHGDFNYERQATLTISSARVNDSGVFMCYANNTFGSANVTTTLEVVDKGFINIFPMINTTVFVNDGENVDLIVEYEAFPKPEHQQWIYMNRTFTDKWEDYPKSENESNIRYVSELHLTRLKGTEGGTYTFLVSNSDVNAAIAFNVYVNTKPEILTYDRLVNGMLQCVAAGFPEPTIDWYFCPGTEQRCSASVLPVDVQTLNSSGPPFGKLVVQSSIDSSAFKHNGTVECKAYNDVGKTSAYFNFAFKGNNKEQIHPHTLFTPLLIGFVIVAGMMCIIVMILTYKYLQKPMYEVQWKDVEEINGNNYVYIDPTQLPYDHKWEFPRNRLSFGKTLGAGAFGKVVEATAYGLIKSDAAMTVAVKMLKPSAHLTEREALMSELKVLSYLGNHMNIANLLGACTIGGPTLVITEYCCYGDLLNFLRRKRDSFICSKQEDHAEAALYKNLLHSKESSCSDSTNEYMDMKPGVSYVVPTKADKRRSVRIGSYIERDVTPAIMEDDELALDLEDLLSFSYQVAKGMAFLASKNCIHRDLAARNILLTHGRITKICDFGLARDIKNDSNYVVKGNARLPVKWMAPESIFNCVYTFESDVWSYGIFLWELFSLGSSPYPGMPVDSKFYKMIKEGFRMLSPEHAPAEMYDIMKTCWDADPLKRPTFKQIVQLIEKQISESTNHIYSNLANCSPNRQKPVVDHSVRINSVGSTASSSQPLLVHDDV
# ACVR2A = ACVR2A (Homo sapiens, UniProt P27037); experiment: Kinase profiling; assay type: binding; settings: read-out: % Ctrl @ 1000 nM
# BRAF (V600E) = BRAF (V600E) (Homo sapiens, UniProt P15056, V600E); experiment: Kinase profiling; assay type: binding; settings: read-out: % Ctrl @ 1000 nM
# RET (V804L) = RET (V804L) (Homo sapiens, UniProt P07949, V804L); experiment: Kinase profiling; assay type: binding; settings: read-out: % Ctrl @ 1000 nM
# [1] = target: ABL1 (H396P)-nonphosphorylated (Homo sapiens, UniProt P00519, H396P); experiment: Kinase profiling; assay type: binding; settings: read-out: % Ctrl @ 1000 nM
# TLK1 = TLK1 (Homo sapiens, UniProt Q9UKI8); experiment: Kinase profiling; assay type: binding; settings: read-out: % Ctrl @ 1000 nM
# TIE2 = TIE2 (Homo sapiens, UniProt Q02763); experiment: Kinase profiling; assay type: binding; settings: read-out: % Ctrl @ 1000 nM
# ICK = ICK (Homo sapiens, UniProt Q9UPZ9); experiment: Kinase profiling; assay type: binding; settings: read-out: % Ctrl @ 1000 nM
# Chain of ICK (Q9UPZ9 whole entry): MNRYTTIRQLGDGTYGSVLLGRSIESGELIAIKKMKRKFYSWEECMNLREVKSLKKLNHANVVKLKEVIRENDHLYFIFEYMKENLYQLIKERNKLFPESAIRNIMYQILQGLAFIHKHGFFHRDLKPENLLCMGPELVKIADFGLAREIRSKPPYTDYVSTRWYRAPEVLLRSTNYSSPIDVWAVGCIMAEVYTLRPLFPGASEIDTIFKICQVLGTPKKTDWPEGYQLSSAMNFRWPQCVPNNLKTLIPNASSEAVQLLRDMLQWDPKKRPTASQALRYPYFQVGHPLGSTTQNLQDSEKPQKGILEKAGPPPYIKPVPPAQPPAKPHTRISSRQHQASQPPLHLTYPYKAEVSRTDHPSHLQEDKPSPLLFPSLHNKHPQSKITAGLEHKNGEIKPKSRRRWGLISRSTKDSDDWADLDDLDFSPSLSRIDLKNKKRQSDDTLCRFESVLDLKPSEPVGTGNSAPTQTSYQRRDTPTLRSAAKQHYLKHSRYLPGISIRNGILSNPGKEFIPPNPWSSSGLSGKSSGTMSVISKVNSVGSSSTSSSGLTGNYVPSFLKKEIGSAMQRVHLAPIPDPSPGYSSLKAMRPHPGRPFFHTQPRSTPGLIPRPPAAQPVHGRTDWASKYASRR
# HCK = HCK (Homo sapiens, UniProt P08631); experiment: Kinase profiling; assay type: binding; settings: read-out: % Ctrl @ 1000 nM
# Chain of HCK (P08631 whole entry): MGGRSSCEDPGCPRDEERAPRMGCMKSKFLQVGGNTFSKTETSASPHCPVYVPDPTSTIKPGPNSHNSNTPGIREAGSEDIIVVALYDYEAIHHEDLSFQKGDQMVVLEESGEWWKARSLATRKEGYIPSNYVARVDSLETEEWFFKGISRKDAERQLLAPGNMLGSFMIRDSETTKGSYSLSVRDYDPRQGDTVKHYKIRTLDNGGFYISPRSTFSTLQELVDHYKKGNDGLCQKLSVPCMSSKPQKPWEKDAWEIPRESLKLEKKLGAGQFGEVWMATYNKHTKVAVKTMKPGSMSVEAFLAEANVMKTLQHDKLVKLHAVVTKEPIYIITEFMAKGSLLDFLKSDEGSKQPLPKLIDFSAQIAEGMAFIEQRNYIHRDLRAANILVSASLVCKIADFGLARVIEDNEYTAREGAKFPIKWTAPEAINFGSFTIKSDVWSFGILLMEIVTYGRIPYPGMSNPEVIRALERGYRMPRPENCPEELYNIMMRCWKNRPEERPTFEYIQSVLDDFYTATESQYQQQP
# CDC2L1 = CDC2L1 (Homo sapiens, UniProt P21127); experiment: Kinase profiling; assay type: binding; settings: read-out: % Ctrl @ 1000 nM
# B-Raf (V599E) (h) = target: T2, B-Raf (V599E) (h) (Homo sapiens, UniProt P15056, V600E); experiment: Kinase IC50 (Eurofins KinaseProfiler); assay type: biochemical
# T2 construct: purchased Eurofins
# T2 sequence (P15056 417-766 V600E limits assumed): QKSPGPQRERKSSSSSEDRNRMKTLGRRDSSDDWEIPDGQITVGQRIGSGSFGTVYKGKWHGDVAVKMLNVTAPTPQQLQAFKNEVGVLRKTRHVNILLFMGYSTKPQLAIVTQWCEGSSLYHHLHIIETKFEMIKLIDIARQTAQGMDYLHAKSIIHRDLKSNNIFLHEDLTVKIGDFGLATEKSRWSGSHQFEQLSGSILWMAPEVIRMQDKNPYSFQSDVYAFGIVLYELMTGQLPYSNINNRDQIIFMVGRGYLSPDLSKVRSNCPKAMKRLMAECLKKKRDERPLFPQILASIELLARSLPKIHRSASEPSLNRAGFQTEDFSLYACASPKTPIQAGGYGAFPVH
# Experimental: (§1) CBT-102 were tested against each of the selected kinases using the Eurofins standard KinaseProfder assays and following the relevant standard operating procedures. The required volume of the 50× stock of test compound (CBT-102) was added to the assay well, before a reaction mix containing the enzyme and substrate was added. The reaction was initiated by the addition of ATP at the selected concentration. There was no pre-incubation of the compound with the enzyme/substrate mix prior to ATP addition.
# (§2) Data are handled using a custom-built in-house analysis software. Results are expressed as kinase activity remaining, as a percentage of the DMSO control. This is calculated using the following formula: […]
# (§3) For IC50 determinations, data are analyzed using XLFit version 5.3 (ID Business Solutions).
# ErbB2 (h) = target: T3, ErbB2 (h) (Homo sapiens, UniProt P04626); experiment: Kinase IC50 (Eurofins KinaseProfiler); assay type: biochemical
# T3 construct: purchased Eurofins (KinaseProfiler service)
# Experimental: as §1, §2, §3
# TYK2 (h) = target: T4, TYK2 (h) (Homo sapiens, UniProt P29597); experiment: Kinase IC50 (Eurofins KinaseProfiler); assay type: biochemical
# T4 construct: purchased Eurofins
# Experimental: as §1, §2, §3
# p70S6K (h) = target: T5, p70S6K (h) (Homo sapiens, UniProt P23443); experiment: Kinase IC50 (Eurofins KinaseProfiler); assay type: biochemical
# T5 construct: purchased Eurofins (KinaseProfiler service)
# Experimental: as §1, §2, §3
# cKit (D816V) (h) = target: T6, cKit (D816V) (h) (Homo sapiens, UniProt P10721, D816V); experiment: Kinase IC50 (Eurofins KinaseProfiler); assay type: biochemical
# T6 construct: purchased Eurofins (KinaseProfiler service)
# Experimental: as §1, §2, §3
# CDK6/cyclinD3 (h) = target: T7, CDK6/cyclinD3 (h) (Homo sapiens, UniProt Q00534); experiment: Kinase IC50 (Eurofins KinaseProfiler); assay type: biochemical
# T7 construct: purchased Eurofins (KinaseProfiler service)
# Experimental: as §1, §2, §3
# IRAK4 (h) = target: T8, IRAK4 (h) (Homo sapiens, UniProt Q9NWZ3); experiment: Kinase IC50 (Eurofins KinaseProfiler); assay type: biochemical
# T8 construct: purchased Eurofins (KinaseProfiler service)
# Experimental: as §1, §2, §3
# Tie2 (h) = target: T9, Tie2 (h) (Homo sapiens, UniProt Q02763); experiment: Kinase IC50 (Eurofins KinaseProfiler); assay type: biochemical
# T9 construct: purchased Eurofins
# Experimental: as §1, §2, §3
# PDGFRα (V561D) (h) = target: T10, PDGFRα (V561D) (h) (Homo sapiens, UniProt P16234, V561D); experiment: Kinase IC50 (Eurofins KinaseProfiler); assay type: biochemical
# T10 construct: purchased Eurofins (KinaseProfiler service)
# Experimental: as §1, §2, §3
# IKKβ (h) = target: T11, IKKβ (h) (Homo sapiens, UniProt O14920); experiment: Kinase IC50 (Eurofins KinaseProfiler); assay type: biochemical
# T11 construct: purchased Eurofins (KinaseProfiler service)
# Experimental: as §1, §2, §3
# FLT3 (N841I) = FLT3 (N841I) (Homo sapiens, UniProt P36888, N841I); experiment: Kinase profiling; assay type: binding; settings: read-out: % Ctrl @ 1000 nM
# ERK4 = ERK4 (Homo sapiens, UniProt P31152); experiment: Kinase profiling; assay type: binding; settings: read-out: % Ctrl @ 1000 nM
# Chain of ERK4 (P31152 whole entry): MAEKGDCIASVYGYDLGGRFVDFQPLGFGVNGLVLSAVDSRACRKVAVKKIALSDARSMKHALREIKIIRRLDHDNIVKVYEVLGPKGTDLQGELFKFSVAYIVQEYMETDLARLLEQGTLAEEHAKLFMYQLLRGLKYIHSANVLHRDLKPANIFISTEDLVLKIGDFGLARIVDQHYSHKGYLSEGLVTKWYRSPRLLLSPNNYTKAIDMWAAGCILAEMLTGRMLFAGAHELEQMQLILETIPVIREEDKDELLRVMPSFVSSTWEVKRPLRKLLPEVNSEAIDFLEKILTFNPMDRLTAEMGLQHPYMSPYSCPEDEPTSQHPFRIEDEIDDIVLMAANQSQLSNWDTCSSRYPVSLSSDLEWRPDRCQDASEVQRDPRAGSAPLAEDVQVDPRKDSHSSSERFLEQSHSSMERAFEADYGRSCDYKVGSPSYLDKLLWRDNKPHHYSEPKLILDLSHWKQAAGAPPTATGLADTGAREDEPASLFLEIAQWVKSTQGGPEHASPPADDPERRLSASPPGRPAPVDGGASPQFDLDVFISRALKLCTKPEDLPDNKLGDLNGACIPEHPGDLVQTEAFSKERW
# NEK1 = target: T12, NEK1 (Homo sapiens, UniProt Q96PY6); experiment: Kinase profiling; assay type: binding; settings: read-out: % Ctrl @ 1000 nM
# T12 construct: T7 phage fusion (said for most assays); made in house
# PCTK2 = PCTK2 (Homo sapiens, UniProt Q00537); experiment: Kinase profiling; assay type: binding; settings: read-out: % Ctrl @ 1000 nM
# AMPK-alpha2 = AMPK-alpha2 (Homo sapiens, UniProt P54646); experiment: Kinase profiling; assay type: binding; settings: read-out: % Ctrl @ 1000 nM
# Chain of AMPK-alpha2 (P54646 whole entry): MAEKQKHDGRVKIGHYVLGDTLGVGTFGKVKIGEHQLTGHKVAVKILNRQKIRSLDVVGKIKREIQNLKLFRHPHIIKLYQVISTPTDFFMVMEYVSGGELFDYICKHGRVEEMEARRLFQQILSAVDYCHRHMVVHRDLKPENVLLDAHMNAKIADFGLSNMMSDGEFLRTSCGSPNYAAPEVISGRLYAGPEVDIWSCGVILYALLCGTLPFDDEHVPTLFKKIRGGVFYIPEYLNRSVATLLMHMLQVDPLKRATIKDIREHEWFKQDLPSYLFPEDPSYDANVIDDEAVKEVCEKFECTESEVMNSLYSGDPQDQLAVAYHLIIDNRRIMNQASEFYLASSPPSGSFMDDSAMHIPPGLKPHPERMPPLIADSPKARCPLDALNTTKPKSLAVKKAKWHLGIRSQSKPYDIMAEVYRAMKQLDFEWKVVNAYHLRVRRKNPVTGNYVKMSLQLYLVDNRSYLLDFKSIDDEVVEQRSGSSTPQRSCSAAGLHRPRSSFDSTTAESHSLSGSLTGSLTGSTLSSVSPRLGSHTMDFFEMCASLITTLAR
# [2] = target: RSK1 (Kin.Dom.2-C-terminal) (Homo sapiens, UniProt Q15418); experiment: Kinase profiling; assay type: binding; settings: read-out: % Ctrl @ 1000 nM
# Chain of RSK1 (Kin.Dom.2-C-terminal) (Q15418 418-675 limits assumed): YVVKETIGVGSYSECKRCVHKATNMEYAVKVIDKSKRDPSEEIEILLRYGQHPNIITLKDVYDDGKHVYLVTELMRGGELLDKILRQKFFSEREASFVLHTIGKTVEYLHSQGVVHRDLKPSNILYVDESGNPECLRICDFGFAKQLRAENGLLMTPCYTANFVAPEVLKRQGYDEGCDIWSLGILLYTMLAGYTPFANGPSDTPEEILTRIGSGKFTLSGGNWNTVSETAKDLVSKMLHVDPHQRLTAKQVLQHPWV
# ERBB4 = ERBB4 (Homo sapiens, UniProt Q15303); experiment: Kinase profiling; assay type: binding; settings: read-out: % Ctrl @ 1000 nM
# DCAMKL2 = DCAMKL2 (Homo sapiens, UniProt Q8N568); experiment: Kinase profiling; assay type: binding; settings: read-out: % Ctrl @ 1000 nM
# EGFR (S752-I759del) = EGFR (S752-I759del) (Homo sapiens, UniProt P00533, DEL752-759); experiment: Kinase profiling; assay type: binding; settings: read-out: % Ctrl @ 1000 nM
# Chain of EGFR (S752-I759del) (P00533 with tags, fused parts or gaps DEL752-759): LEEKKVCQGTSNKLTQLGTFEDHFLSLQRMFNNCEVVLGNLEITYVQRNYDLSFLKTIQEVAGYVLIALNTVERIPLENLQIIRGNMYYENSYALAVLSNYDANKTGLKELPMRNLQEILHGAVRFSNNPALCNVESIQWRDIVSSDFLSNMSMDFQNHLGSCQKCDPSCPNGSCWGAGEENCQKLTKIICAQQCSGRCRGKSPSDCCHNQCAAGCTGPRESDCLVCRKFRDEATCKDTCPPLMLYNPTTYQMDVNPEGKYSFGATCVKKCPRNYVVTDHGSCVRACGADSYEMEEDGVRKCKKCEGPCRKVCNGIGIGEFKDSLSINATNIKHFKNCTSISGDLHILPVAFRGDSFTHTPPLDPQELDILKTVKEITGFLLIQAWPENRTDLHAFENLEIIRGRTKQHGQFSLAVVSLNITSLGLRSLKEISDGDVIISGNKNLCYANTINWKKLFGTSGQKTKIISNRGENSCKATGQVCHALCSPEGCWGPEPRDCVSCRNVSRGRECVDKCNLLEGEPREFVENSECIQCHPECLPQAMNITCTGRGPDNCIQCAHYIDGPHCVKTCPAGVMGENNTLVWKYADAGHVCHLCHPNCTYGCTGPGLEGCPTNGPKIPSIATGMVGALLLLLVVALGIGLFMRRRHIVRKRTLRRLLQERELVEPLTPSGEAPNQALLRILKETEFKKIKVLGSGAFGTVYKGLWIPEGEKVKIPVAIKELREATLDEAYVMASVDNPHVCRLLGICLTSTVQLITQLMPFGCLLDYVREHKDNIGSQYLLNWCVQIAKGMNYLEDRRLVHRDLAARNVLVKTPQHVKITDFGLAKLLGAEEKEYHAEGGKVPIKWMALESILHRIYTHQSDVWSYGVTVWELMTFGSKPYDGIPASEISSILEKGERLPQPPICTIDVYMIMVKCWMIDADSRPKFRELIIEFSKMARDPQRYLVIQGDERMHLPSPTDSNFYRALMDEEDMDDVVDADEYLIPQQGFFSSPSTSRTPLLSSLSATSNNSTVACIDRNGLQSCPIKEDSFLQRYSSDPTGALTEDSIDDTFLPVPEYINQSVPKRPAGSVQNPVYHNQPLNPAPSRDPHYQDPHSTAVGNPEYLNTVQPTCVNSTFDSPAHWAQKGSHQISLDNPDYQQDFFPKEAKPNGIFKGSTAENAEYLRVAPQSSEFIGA
structure (smiles),measurement,setting,value
Cc1cc(Oc2cc(NC(=O)C3CC3)ncn2)ccc1NC(=O)Nc1ccc(Cl)c(C(F)(F)F)c1 [CBT-102],remaining activity at 1 µM,FGR,41%
same,remaining activity at 1 µM,PRKR,92%
same,remaining activity at 1 µM,PIP5K2B,99%
same,remaining activity at 1 µM,NIK,100%
same,remaining activity at 1 µM,MARK1,100%
same,remaining activity at 1 µM,"KIT (V559D, V654A)",2.8%
same,remaining activity at 1 µM,ACVR2A,100%
same,remaining activity at 1 µM,BRAF (V600E),1.8%
same,remaining activity at 1 µM,RET (V804L),42%
same,remaining activity at 1 µM,[1],20%
same,remaining activity at 1 µM,TLK1,100%
same,remaining activity at 1 µM,TIE2,16%
same,remaining activity at 1 µM,ICK,100%
same,remaining activity at 1 µM,HCK,54%
same,remaining activity at 1 µM,CDC2L1,36%
same,IC50,B-Raf (V599E) (h),0.115 µM
same,IC50,ErbB2 (h),> 10 µM
same,IC50,TYK2 (h),> 10 µM
same,IC50,p70S6K (h),> 10 µM
same,IC50,cKit (D816V) (h),> 10 µM
same,IC50,CDK6/cyclinD3 (h),> 10 µM
same,IC50,IRAK4 (h),> 10 µM
same,IC50,Tie2 (h),0.242 µM
same,IC50,PDGFRα (V561D) (h),0.028 µM
same,IC50,IKKβ (h),> 10 µM
same,remaining activity at 1 µM,FLT3 (N841I),0%
same,remaining activity at 1 µM,ERK4,91%
same,remaining activity at 1 µM,NEK1,100%
same,remaining activity at 1 µM,PCTK2,44%
same,remaining activity at 1 µM,AMPK-alpha2,100%
same,remaining activity at 1 µM,[2],94%
same,remaining activity at 1 µM,ERBB4,100%
same,remaining activity at 1 µM,DCAMKL2,95%
same,remaining activity at 1 µM,EGFR (S752-I759del),91%

# — patent US20220088016A1, “CANCER TREATMENT USING MULTI-TARGETED KINASE INHIBITOR IN COMBINATION OF PROTEIN KINASE BIOMARKERS” (ZHEJIANG CROWNMAB BIOTECH CO. LTD., priority 2019, published 2022)
